Measured values taken from the supplement of paper PMC12137928.
Structures can show the parent of a compound that is named as a salt.

Tested on: HCT116
Details: 72 h
In short: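 HCT116 cells went into 1536-well plates at 250 per well. CellTiter-Glo luminescence was expressed relative to vehicle (0%) and positive control (-100%) and then pattern-corrected. Both IC50 and maximal efficacy were taken from four-parameter Hill fits.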

| SMILES | IC50 cell viability (ICRF193 0 nM) | IC50 cell viability (ICRF193 200 nM) |
| --- | --- | --- |
| O=C(OCC1(COC(=O)c2cccnc2)CCCC(COC(=O)c2cccnc2)(COC(=O)c2cccnc2)C1O)c1cccnc1 [Nicomolol] | > 45.8 µM | > 45.8 µM |
| COc1cc2c(cc1OC)CC(=O)N(CCCN(C)C[C@H]1Cc3cc(OC)c(OC)cc31)CC2 [Ivabradine hydrochloride] | > 45.8 µM | > 45.8 µM |
| Cc1ccccc1O [o-Cresol] | > 45.8 µM | > 45.8 µM |
| CCCCN1C[C@H](O)[C@@H](O)[C@H](O)[C@H]1CO [Miglustat] | > 45.8 µM | > 45.8 µM |
| CC(OC(=O)OC1CCCCC1)OC(=O)C1=C(CSc2nnnn2CCN(C)C)CS[C@@H]2[C@H](NC(=O)Cc3csc(N)n3)C(=O)N12 (some centres not stated) [SCE 2174] | > 45.8 µM | > 45.8 µM |
| O=c1c2c(c1=O)N(CCP(=O)(O)O)CCCN2 [EAA-090] | > 45.8 µM | > 45.8 µM |
| COc1c(N2C[C@@H]3CCCN[C@@H]3C2)c(F)cc2c(=O)c(C(=O)O)cn(C3CC3)c12 [Moxifloxacin (Hydrochloride)] | > 45.8 µM | > 45.8 µM |
| COc1ccc(-c2noc(CC(=O)O)c2-c2ccc(OC)cc2)cc1 [Mofezolac] | > 45.8 µM | > 45.8 µM |
| CC(C)(C)C(=O)OCC(=O)[C@H]1CC[C@H]2[C@@H]3CCC4=CC(=O)CC[C@]4(C)[C@H]3CC[C@]12C [Desoxycorticosterone Pivalate] | > 45.8 µM | > 45.8 µM |
| OC[C@@H](O)[C@H](O)[C@H](O)[C@@H](O)CO [D-Galactitol] | > 45.8 µM | > 45.8 µM |
| CCN(CC)CCOCCOC(=O)C1(c2ccccc2)CCCC1 [Carbetapentane] | > 45.8 µM | > 45.8 µM |
| CCOC(=O)c1ccc(OCCN2C[C@H](O)[C@@H](O)[C@H](O)[C@H]2CO)cc1 [Emiglitate] | > 45.8 µM | > 45.8 µM |
| CC(O)(CS(=O)(=O)c1ccc(F)cc1)C(=O)Nc1ccc(C#N)c(C(F)(F)F)c1 (configuration not stated) [BICALUTAMIDE] | > 45.8 µM | > 45.8 µM |
| CN1CCC[C@@H]1Cc1c[nH]c2ccc(CCS(=O)(=O)c3ccccc3)cc12 [Eletriptan] | > 45.8 µM | > 45.8 µM |
| O=C(OCC(COC(=O)c1cccnc1)(COC(=O)c1cccnc1)COC(=O)c1cccnc1)c1cccnc1 [Niceritrol] | > 45.8 µM | > 45.8 µM |
| COc1nc(C)nc(Cl)c1NC1=NCCN1 [Moxonidine hydrochloride hydrate] | > 45.8 µM | > 45.8 µM |
